The text below walks through data of patent publication US6281250A, “Retinyl ethers, derivatives and analogues and inhibition of breast carcinogenesis” (Southern Research Institute, priority 1999, dated 2001).

By NOAEL is commonly meant the highest dose or exposure tested at which no adverse effect was seen.

Each structure is given as a SMILES string. Values joined by “and” are separate entries in the source; they are usually repeats but may differ in a detail not shown here. Equal values may be shown once. “Also recorded” adds a separate entry of the source. Read-outs that look alike come from different tables or passages of the source.

Data set [1] is described as follows: Toxicity of retinyl ethers in mice by gavage during 28-29 days. The procedure: Toxicological evaluations involving measurement of body weights and observations of clinical signs characteristic of retinoid toxicity were accomplished as previously described (Lin et al., 1996).
RTMBE and two of its analogues, together with RME and RPE, were selected for estimation of their toxicities to mice when administered during 28-29 days by gavage in corn oil (Table 8). Mice were evaluated for changes in body weight and for signs of clinical retinoid toxicity (hypervitaminosis A) including alopecia, scaly skin, and limping. In the first experiment, these retinyl ethers were given at equimicromolar doses at three dose levels. The retinyl benzyl ethers (RTMBE, 3c, and 3e) were then tested at higher doses in a second experiment.

Data set [2] concerns the target T1, cellular retinol-binding protein (CRBP) (Rattus norvegicus, UniProt P02696).
T1 construct: portions of rat testes cytosol (1 mg protein) were incubated; from tissue; host or cells: rat testes cytosol
T1 sequence (P02696 1-135): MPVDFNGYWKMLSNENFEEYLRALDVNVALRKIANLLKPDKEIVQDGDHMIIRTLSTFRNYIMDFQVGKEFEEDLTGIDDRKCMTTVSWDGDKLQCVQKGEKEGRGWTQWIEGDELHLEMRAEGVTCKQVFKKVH
The conditions noted are these: Sani, 1993; Sani et al., 1996; Shealy et al., 1997; cited from earlier work.

The test system of data set [3] is serum retinol-binding protein (RBP). As to conditions: 150-fold molar excess; Sani et al., 1996; cited from earlier work.
Data set [4] has as its system NADPH-requiring enzymes in rat liver microsomes. The conditions noted are these: literature; cited from earlier work.
For data set [5] the following is noted: rat, in feed; Shealy et al., 1997; cited from earlier work.
For data set [6] the following is noted: cited from earlier work; for stability in refluxing ethanol: 24 hours or similar, protected from light and air, Shealy et al, 1997.
The test system of data set [7] is carcinogen-induced mammary cancer. The conditions noted are these: cited from earlier work; for suppression of MNU-induced mammary cancer: Thompson et al., 1978 / Shealy et al.
The conditions of data set [8]: Shealy et al., 1997, cited from earlier work; for toxicity in mammary carcinogenesis study: 2 mmol/kg of diet; for toxic dose in the feed after 90 days: Sprague-Dawley rats.
In data set [9] the test system is serum retinol-binding protein (RBP). Briefly: Binding to serum retinol-binding protein (RBP): inhibition of [3H]retinol binding. The conditions noted are these: % of that of retinol.
Data set [10] deals with MNU-induced mammary tumors.
Protocol: The methods employed in the preparation of diets, analyses of retinoid-dietspecimens, and dietary treatment with retinoids of MNU-induced mammary carcinogenesis in Sprague-Dawley rats were described previously (Grubbs et al., 1995; Shealy et al., 1997). Briefly, diets were prepared by mixing each retinoid with Wayne meal or Teklad (4%) mash diet. For each kg of diet, the retinoid was dissolved in 12 g ethanol, 19 g trioctanoin, 0.05 mL Tenox 20, and 0.05 mL d,1-alpha tocopherol prior to incorporation into the feed using a Patterson-Kelly blender. Retinoid diet mixtures were stored at 4° C. Portions of each retinoid-diet mixture were analyzed for the added retinoid to ensure homogeneity. Female Sprague-Dawley rats received an i.v. injection of MNU (45 mg/kg body weight) at 50 days of age. Diet supplementation with retinoids was initiated three days after MNU. A group of rats receiving retinyl acetate (1 mmol/kg of diet) served as the positive control. The animals were palpated for mammary tumors 2×/week. At termination of the study, mammary tumors were processed for histological classification. Also, five rats/group had complete necropsies performed. The tissues were examined histologically for pathological lesions as additional toxicological evaluation. Extracts of the liver and mammary gland (5 rats/group) were analyzed by HPLC for retinyl palmitate and/or for the dosed retinoid. Statistical analyses of cancer incidence and latency were determined using logrank analysis, while differences in cancer multiplicity were determined employing the Armitage test.
^b Average number of palpable mammary tumors.
^c Diet supplementation with retinoids was initiated at 52 days of age
and was continued until the study was terminated 180 days after
administration of MNU. Treatment with retinoids is stated in millimoles of
retinoid per kilogram of diet (Wayne meal).
^d Female Sprague-Dawley rats received one i.v. injection of MNU (50
mg/kg of body weight) at 50 days of age.
For data set [11] the following is noted: Shealy et al., 1997; cited from earlier work.
The mark [12] stands for this setting: oral gavage in corn oil, 28-29 days.

With `COC/C=C(C)/C=C/C=C(C)/C=C/C1=C(C)CCCC1(C)C` [RME, retinyl methyl ether], in data set [1] (setting [12]), the “Toxic Dose” value is > 20 mg/kg day and < 40 mg/kg day; the “toxic dose from body-weight data” value is less than 40 mg/kg/day. Further, in data set [2], the “binding to CRBP” value is given as “bind to cellular retinol-binding protein (CRBP)”. Besides, the “inhibition of binding of tritiated retinol (RBP), relative to retinol” value in data set [3] is listed as 100%. The “conversion (demethylation) to retinol or its analogue” value in [4] is listed as “demethylated to retinol in rat liver; also recorded: converted, respectively, to retinol or its TMMP analogue; also recorded: demethylation of RME by microsomal oxidases to retinol”. Besides, in [5], the “accumulation of retinyl palmitate in the liver” value is on record as “a toxic effect produced by efficacious amounts”. The “stability in refluxing ethanol” value in data set [6] was “only minor degradation”. Besides, in data set [7] (rats, Grubbs et al, 1977), the “suppression of 7,12-DMBA-induced mammary cancer” value is “suppress”. For the same compound, the “suppression of MNU-induced mammary cancer” value in [7] (rats, 1997) is on record as “suppress”. In addition, in [8], the “toxicity in mammary carcinogenesis study” value was “RME was (at 2 mmol/kg of diet)”; the “toxic dose in the feed after 90 days” value is > 1 mmole/kg of diet and < 2 mmole/kg of diet.

Regarding `C#CCOC/C=C(C)/C=C/C=C(C)/C=C/C1=C(C)CCCC1(C)C` [RPE, retinyl propynyl ether], in data set [9], the “inhibition of [3H] retinol-binding (RBP), relative to that of retinol” value is given as 70%. Further, the NOAEL in data set [1] (mouse, in vivo, po) was found to be 43 mg/kg/day. In addition, the “Toxic Dose” value in [1] (setting [12]) is more than 43 mg/kg day. Moreover, in data set [10] (after 90 days, 2 mmol/kg diet (Table 7)), the “reduction of average number of tumors per rat” value is 44%. For the same compound, the “reduction in the average number of tumors per rat” value in [10] (by the end of the 180-day study, 2 mmol/kg diet (Table 7)) was determined as 16%. Also, in data set [10] (with MNU, 0.5 mmol/kg diet), the “% of Control Gp., Day 90” value is on record as 74%; the “% of Control Gp., Day 180” value is on record as 97%; the “Avg No. Per Rat (palpable mammary tumors), Day 90” value was 1.7; the “Avg No. Per Rat (palpable mammary tumors), Day 180” value (shortened to “Avg No. Per Rat … Day 180”) is 6.2. Also, in [10] (with MNU, 2 mmol/kg diet), the “% of Control Gp., Day 90” value came out at 56%; the “% of Control Gp., Day 180” value is recorded as 84%; the “Avg No. Per Rat (palpable mammary tumors), Day 90” value was determined as 1.3; the “Avg No. Per Rat … Day 180” value amounted to 5.4. Moreover, the “Avg No. Per Rat … Day 180” value in [10] (without MNU, 0.5 mmol/kg diet) was found to be 0. In addition, the “Avg No. Per Rat … Day 180” value in [10] (without MNU, 2 mmol/kg diet) stood at 0. In data set [5], the “accumulation in mammary tissue” value is given as “accumulated in rat mammary tissue” and the “accumulation of retinyl palmitate in the liver” value is given as “did not cause; also recorded: some increase in retinyl palmitate in the liver”. Moreover, in data set [11], the “recovery from the feed of rats” value is recorded as “recoverable from the feed of rats”. Also, the “stability in refluxing ethanol” value in data set [6] is given as “intramolecular cyclization”. In addition, the “stability in the solid state and in solution” value in data set [6] (Shealy et al., 1996, 1997) was “slowly undergoes an intramolecular Diels-Alder reaction”. Moreover, in data set [7] (earlier 90-day study, 2 mmol/kg of diet, MNU, Shealy et al., 1997), the “reduction of average number of tumors per rat” value is recorded as 48%. Also, the “suppression of MNU-induced mammary cancer” value in data set [7] (rats, 1997) is “inhibited the development of MNU-induced mammary cancer; also recorded: more effective than retinyl acetate”. In [8], the “toxicity in mammary carcinogenesis study” value is recorded as “not toxireas” and the “toxic dose in the feed after 90 days” value is > 2 mmole/kg of diet.
